Experimental data taken from ChEMBL document CHEMBL5550214, “Expanding Structure-Activity Relationships of Human Urotensin II Peptide Analogues: A Proposed Key Role of the N-Terminal Region for Novel Urotensin II Receptor Modulators” (J Med Chem, 2024).
Activity calls are given as the source filed them. The rule behind the calls is not given here.

Assays:
Aortic ring [1] = experiment: Induction of contraction in Albino Wistar rat aortic ring assessed as Emax of hU-II at 1 uM incubated for 30 mins in presence of hU-II (reference value: 214.5 +/- 10.51 dyne/mg); format: functional, Aorta; conditions: 0.5 h
Aortic ring [2] = experiment: Induction of contraction in Albino Wistar rat aortic ring assessed as Emax of U-II(4-11) at 0.1 uM incubated for 30 mins in presence of U-II(4-11) (reference value: 242.6 +/- 20.63 dyne/mg); format: functional, Aorta; conditions: 0.5 h
Aortic ring [3] = experiment: Induction of contraction in Albino Wistar rat aortic ring assessed as Emax of U-II(4-11) at 10 uM incubated for 30 mins in presence of U-II(4-11) (reference value: 159.8 +/- 7.3 dyne/mg); format: functional, Aorta; conditions: 0.5 h
Aortic ring [4] = experiment: Induction of contraction in Albino Wistar rat aortic ring assessed as Emax of [Ala1]U-II at 1 uM incubated for 30 mins in presence of [Ala1]U-II (reference value: 308.1 +/- 21.4 dyne/mg); format: functional, Aorta; conditions: 0.5 h
Aortic ring [5] = experiment: Induction of contraction in Albino Wistar rat aortic ring assessed as Emax of hU-II at 0.1 uM incubated for 30 mins in presence of hU-II (reference value: 224.8 +/- 11.71 dyne/mg); format: functional, Aorta; conditions: 0.5 h
[6] = biological target: T1, Urotensin-2 receptor (Homo sapiens) (UniProt Q9UKP6); experiment: Modulation of human UTR stably expressed in HEK293 cells assessed as increase in Ca2+ level at 0.1 to 100 nM by Fura 2-AM dye based calcium mobilization assay; format: functional, cell-based; conditions: dose 0.1-100 nM
T1 sequence (whole entry): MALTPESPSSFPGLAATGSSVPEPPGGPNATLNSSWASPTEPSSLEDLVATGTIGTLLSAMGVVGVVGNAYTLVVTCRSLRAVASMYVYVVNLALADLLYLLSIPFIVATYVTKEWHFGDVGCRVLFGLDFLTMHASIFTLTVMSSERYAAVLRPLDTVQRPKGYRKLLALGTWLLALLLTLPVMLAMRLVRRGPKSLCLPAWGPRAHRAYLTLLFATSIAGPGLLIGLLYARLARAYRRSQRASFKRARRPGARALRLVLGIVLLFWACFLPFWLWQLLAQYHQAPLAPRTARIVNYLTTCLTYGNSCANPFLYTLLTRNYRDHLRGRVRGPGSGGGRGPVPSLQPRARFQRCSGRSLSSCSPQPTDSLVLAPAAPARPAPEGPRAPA

Aortic ring [7] = experiment: Induction of contraction in Albino Wistar rat aortic ring assessed as Emax of [Ala1]U-II at 10 uM incubated for 30 mins in presence of [Ala1]U-II (reference value: 153.3 +/- 10.75 dyne/mg); format: functional, Aorta; conditions: 0.5 h
Aortic ring [8] = experiment: Induction of contraction in Albino Wistar rat aortic ring assessed as Emax of U-II(4-11) at 1 uM incubated for 30 mins in presence of U-II(4-11) (reference value: 159.8 +/- 7.39 dyne/mg); format: functional, Aorta; conditions: 0.5 h
Aortic ring [9] = experiment: Induction of contraction in Albino Wistar rat aortic ring assessed as Emax of [Ala1]U-II at 0.1 uM incubated for 30 mins in presence of [Ala1]U-II (reference value: 220.3 +/- 17.48 dyne/mg); format: functional, Aorta; conditions: 0.5 h
Aortic ring [10] = experiment: Induction of contraction in Albino Wistar rat aortic ring at 1 to 30 nM; format: functional, tissue-based; conditions: Aorta, dose 1-30 nM
Aortic ring [11] = experiment: Induction of contraction in Albino Wistar rat aortic ring assessed as Emax of hU-II at 10 uM incubated for 30 mins in presence of hU-II (reference value: 238.4 +/- 9.53 dyne/mg); format: functional, Aorta; conditions: 0.5 h
Aortic ring [12] = experiment: Induction of contraction in Albino Wistar rat aortic ring assessed as Emax of U-II(4-11) at 1 uM incubated for 30 mins in presence of U-II(4-11) (reference value: 159.8 +/- 7.3 dyne/mg); format: functional, Aorta; conditions: 0.5 h
Aortic ring [13] = experiment: Induction of contraction in Albino Wistar rat aortic ring assessed as Emax of [Ala1]U-II at 0.1 uM incubated for 30 mins in presence of [Ala1]U-II (reference value: 323 +/- 30.45 dyne/mg); format: functional, Aorta; conditions: 0.5 h
Aortic ring [14] = experiment: Induction of contraction in Albino Wistar rat aortic ring assessed as Emax of [Ala1]U-II at 1 uM incubated for 30 mins in presence of [Ala1]U-II (reference value: 220.3 +/- 17.48 dyne/mg); format: functional, Aorta; conditions: 0.5 h
Aortic ring [15] = experiment: Induction of contraction in Albino Wistar rat aortic ring assessed as Emax of U-II(4-11) at 10 uM incubated for 30 mins in presence of U-II(4-11) (reference value: 152.4 +/- 5.1 dyne/mg); format: functional, Aorta; conditions: 0.5 h
Aortic ring [16] = experiment: Induction of contraction in Albino Wistar rat aortic ring assessed as Emax of hU-II at 1 uM incubated for 30 mins in presence of hU-II (reference value: 224.8 +/- 11.71 dyne/mg); format: functional, Aorta; conditions: 0.5 h
Aortic ring [17] = experiment: Induction of contraction in Albino Wistar rat aortic ring assessed as Emax of hU-II at 0.1 uM incubated for 30 mins in presence of hU-II (reference value: 251.4 +/- 15.43 dyne/mg); format: functional, Aorta; conditions: 0.5 h
Aortic ring [18] = experiment: Induction of contraction in Albino Wistar rat aortic ring assessed as Emax of U-II(4-11) at 0.1 uM incubated for 30 mins in presence of U-II(4-11) (reference value: 159.8 +/- 7.39 dyne/mg); format: functional, Aorta; conditions: 0.5 h
Aortic ring [19] = experiment: Induction of contraction in Albino Wistar rat aortic ring assessed as Emax of hU-II at 10 uM incubated for 30 mins in presence of hU-II (reference value: 214.5 +/- 10.51 dyne/mg); format: functional, Aorta; conditions: 0.5 h
Aortic ring [20] = experiment: Induction of contraction in Albino Wistar rat aortic ring assessed as Emax of [Ala1]U-II at 10 uM incubated for 30 mins in presence of [Ala1]U-II (reference value: 308.1 +/- 21.4 dyne/mg); format: functional, Aorta; conditions: 0.5 h
Aortic ring [21] = experiment: Induction of contraction in Albino Wistar rat aortic ring assessed as Emax of hU-II at 1 uM incubated for 30 mins in presence of hU-II (reference value: 251.4 +/- 15.43 dyne/mg); format: functional, Aorta; conditions: 0.5 h
Aortic ring [22] = experiment: Induction of contraction in Albino Wistar rat aortic ring assessed as Emax of hU-II at 10 uM incubated for 30 mins in presence of hU-II (reference value: 224.8 +/- 11.71 dyne/mg); format: functional, Aorta; conditions: 0.5 h
Aortic ring [23] = experiment: Induction of contraction in Albino Wistar rat aortic ring assessed as Emax of hU-II at 0.1 uM incubated for 30 mins in presence of hU-II (reference value: 279.9 +/- 11.02 dyne/mg); format: functional, Aorta; conditions: 0.5 h

Row | Activity ([6]; filed as modulator) | SMILES | Activity (Aortic ring [10]) | Emax (Aortic ring [12]) [dyn/mg] | Emax (Aortic ring [13]) [dyn/mg] | Emax (Aortic ring [14]) [dyn/mg] | Emax (Aortic ring [15]) [dyn/mg] | Emax (Aortic ring [18]) [dyn/mg] | Emax (Aortic ring [20]) [dyn/mg] | other results
1 | Active | CC(C)[C@H](NC(=O)[C@@H]1CSSC(C)(C)[C@H](NC(=O)[C@H](CC(=O)O)NC(=O)[C@@H]2CCCN2C(=O)[C@@H](NC(=O)[C@H](C)N)[C@@H](C)O)C(=O)N[C@@H](Cc2ccccc2)C(=O)N[C@H](Cc2c[nH]c3ccccc23)C(=O)N[C@@H](CCCN)C(=O)N[C@@H](Cc2ccc(O)cc2)C(=O)N1)C(=O)O | inactive |  |  |  |  |  |  | Emax (Aortic ring [1]): 315.6 dyn/mg; Emax (Aortic ring [2]): 263 dyn/mg; Emax (Aortic ring [3]): 541.8 dyn/mg; Emax (Aortic ring [4]): 121.9 dyn/mg; Emax (Aortic ring [5]): 264.3 dyn/mg; Emax (Aortic ring [7]): 285 dyn/mg; Emax (Aortic ring [8]): 248.2 dyn/mg; Emax (Aortic ring [9]): 373.5 dyn/mg; Emax (Aortic ring [11]): 320.8 dyn/mg
2 | Active | CC(C)[C@H](NC(=O)[C@@H]1CSSC(C)(C)[C@H](NC(=O)[C@H](CC(=O)O)NC(=O)[C@@H]2CCCN2C(=O)[C@@H](NC(=O)[C@@H](N)CCC(N)=O)[C@@H](C)O)C(=O)N[C@@H](Cc2ccccc2)C(=O)N[C@H](Cc2c[nH]c3ccccc23)C(=O)N[C@@H](CCCN)C(=O)N[C@@H](Cc2ccc(O)cc2)C(=O)N1)C(=O)O | inactive | 215.7 | 46.4 | 295.9 | 164.2 | 265.4 | 218.8 | Emax (Aortic ring [16]): 336.6 dyn/mg; Emax (Aortic ring [17]): 507.7 dyn/mg; Emax (Aortic ring [19]): 245.7 dyn/mg
3 |  | CC(C)[C@H](NC(=O)[C@@H]1CSSC(C)(C)[C@H](NC(=O)[C@H](CC(=O)O)NC(=O)[C@@H]2CCCN2C(=O)[C@@H](NC(=O)[C@@H](N)CCN)[C@@H](C)O)C(=O)N[C@@H](Cc2ccccc2)C(=O)N[C@H](Cc2c[nH]c3ccccc23)C(=O)N[C@@H](CCCN)C(=O)N[C@@H](Cc2ccc(O)cc2)C(=O)N1)C(=O)O | inactive | 166.4 | 38.23 | 99.6 | 119.5 | 98.9 | 141.2 | Emax (Aortic ring [21]): 397 dyn/mg; Activity [6]: inactive; Emax (Aortic ring [22]): 208.6 dyn/mg; Emax (Aortic ring [23]): 164 dyn/mg
